Like-named read-outs stand apart in the source and are kept apart here.
What was measured:
Reticulitermes flavipes = experiment: Bioassay of fluoroalkanols (Petri dish assay), termite toxicity; type: in vivo, Reticulitermes flavipes Kollar; settings: quantity impregnated in filter pads required to cause 50% mortality at 3 days
Description: Test compounds were dissolved in dry diethyl ether or dichloromethane and a 1.0 ml portion of the solution was pipetted onto a Gelman sterile 47-mm cellulose pad (Howard and Haverty, 1979). The ether was allowed to evaporate for 10 min, 1.0 ml of distilled water was added to the pad, and the pad was placed in a tight-sealing Gelman 50-mm plastic Petri dish.
Termites (Reticulitermes flavipes Kollar) were collected from rotten logs and tree stumps on the Stony Brook campus. Colonies were kept in trash cans in an insectary (85% RH, 27° C.) for a period of about 6 months before use in this experiment. The experiments were performed in an incubator at +28° C. Undifferentiated larvae above the third instar ("workers") were used in all toxicity tests. Termites were first shaken loose from the interior of the wood, then transferred using mouth aspirators and with soft forceps. The termites were held on filter paper for 24 hours, twenty healthy termites were added to each dish, and the number of dead which were then removed to prevent cannibalism was recorded at daily intervals.
^c Quantity of fluoro compound impregnated in filter pads required to
cause 50% mortality at 3 days.

mice = settings: based on Pattison (1959), cited from earlier work
termites [1] = experiment: Maximum attractiveness (above 50% level); type: in vivo
termites [2] = experiment: Trail activity (trail following by termites); type: in vivo; settings: at 5 × 10^-6 g/10 c (highest conc. tested)
Source text: ^a Value is minimum quantity (in grams) per 10 cm required to elicit
trailfollowing by a total of 8/20 termites in four trails.
^b Maximum number of termites following at 5 × 10^-6 g/10 c
(highest conc. tested).

[3] = estimate from comparison compound C12 satd.
[4] = estimate from comparison compound C18 satd.
[5] = saturated omega-fluoro compound

Molecule	Median Lethal-dose (Reticulitermes flavipes)	Estimated LD50 (mice) (mice; [3])	Estimated LD50 (mice) (mice; [4])	Estimated LD50 (mice) (mice; estimate from comparison compound C10 satd.)	Maximum attractiveness (above 50% level) (termites [1])	Maximum attractiveness (above 50% level), minimum (termites [1]; minimum)	Trail activity, maximum number of termites following (termites [2])	Estimated LD50 (mice) (mice; [5])
16-fluoro-Z/E 9-hexadecen-1-ol	0.020 mg/dish	1.5 mg/kg	4.0 mg/kg	–	–	–	–	–
OCC/C=C\CCCCCCF [10-fluoro-(Z)-3-decen-1-ol]	.0095 mg/dish	–	–	1.0 mg/kg	–	–	–	–
OCC/C=C\CCCCCCCCF [12-Fluoro-(Z)-3-dodecen-1-ol]	.0093 mg/dish	1.5 mg/kg	–	–	10^-7 9	–	–	–
OCC/C=C\C/C=C\CCCCCF [12-fluoro-(Z),(Z)-3,6-dodecadien-1-ol]	.012 mg/dish	1.5 mg/kg	–	–	10^-7 9	10^-8	–	–
OCCCCCCCC/C=C/CCCCCCF [16-fluoro-Z/E 9-hexadecen-1-ol]	0.024 mg/dish	1.5 mg/kg	4.0 mg/kg	–	–	–	–	–
OCCCCCCCCCCCF [F(CH2)10 CH2 OH]	.062 mg/dish	–	–	–	–	–	6/20	> 100 mg/kg
OCCCCCCCCCCCCF [F(CH2)11 CH2 OH, 12-fluorododecan-1-ol]	.0077 mg/dish	–	–	–	–	–	6/20	1.5 mg/kg

Reference: US4455441A, “Attractant termiticidal compounds, compositions and methods of use therefor” (Research Foundation of State University of New York, priority 1982, dated 1984)
